Measurements taken from patent publication US10463660B2, “Benzoic acid, benzoic acid derivatives and heteroaryl carboxylic acid conjugates of oxymorphone, prodrugs, methods of making and use thereof” (KemPharm, Inc., priority 2014, dated 2019).

Key:
[1] = Oral PK profiles of conjugated oxymorphone in rats (released oxymorphone in plasma by LC-MS/MS); assay type: in vivo, Sprague-Dawley rats; settings: for %-AUC / %-Cmax / %-Tmax: 2 mg/kg oxymorphone equivalent, relative to the OM control; for AUC / Cmax / Tmax: conjugate equivalent to 2 mg/kg freebase oxymorphone, released oxymorphone in plasma
Method: (§1) Oral PK curves were determined for a number of prodrug conjugates of the present technology. Rats were orally administered at an amount of the conjugate equivalent to 2 mg/kg of freebase oxymorphone and the plasma concentrations of released oxymorphone were measured over time by LC-MS/MS.
(§2) All PK parameters from the above experiments were calculated and expressed as % change from the control (OM). These PK parameters included maximal plasma concentration (Cmax), area under curve (AUC), and time at which Cmax occurred (Tmax).

[2] = Intranasal PK profiles of conjugated oxymorphone in rats (released oxymorphone in plasma by LC-MS/MS); assay type: in vivo; settings: for %-AUC / %-Cmax / %-Tmax: 0.2 mg/kg oxymorphone equivalent, relative to the OM control; for AUC / Cmax / Tmax: conjugate equivalent to 0.2 mg/kg freebase oxymorphone, released oxymorphone in plasma
Method: as §1, with “Intranasal” for “Oral”, “intranasally” for “orally”, “0.2” for “2”
as §2, with “(Tmax). These parameters are shown in Table 2 relative to the OM controls.” for “(Tmax).”

With `COc1ccc(C(=O)OC2=CCC3(O)C4Cc5ccc(OC(=O)c6ccc(OC)cc6)c6c5C3(CCN4C)C2O6)cc1` (stereo not drawn) [3,6-(4-MeO-Bz)2-OM] the “%-AUC” value [1] was 110%, the “%-Cmax” value [1] was 121% and the “%-Tmax” value [1] was 35%. The AUC [1] was 26.0 ng·h/mL, the Cmax [1] was 10.6 ng/mL and the Tmax [1] was 15 min. For the same compound, the “%-AUC” value [2] was 30%, the “%-Cmax” value [2] was 9% and the “%-Tmax” value [2] was 167%. The AUC [2] was 24.6 ng·h/mL, the Cmax [2] was 33.5 ng/mL and the Tmax [2] was 8.4 min.
With `CN1CC[C@]23c4c5ccc(OC(=O)/C=C/c6ccccc6)c4O[C@H]2C(OC(=O)/C=C/c2ccccc2)=CC[C@@]3(O)[C@H]1C5` [3,6-(Cinnamate)2-OM] the “%-AUC” value [1] was 38%, the “%-Cmax” value [1] was 43% and the “%-Tmax” value [1] was 50%. It also gave an AUC [1] of 14.5 ng·h/mL, a Cmax [1] of 8.7 ng/mL and a Tmax [1] of 45 min.
With `CC(=O)Oc1ccccc1C(=O)Oc1ccc2c3c1OC1C(=O)CCC4(O)C(C2)N(C)CCC314` (stereo not drawn) [3-(2-AcO-Bz)-OM] the “%-AUC” value [1] was 72%, the “%-Cmax” value [1] was 78% and the “%-Tmax” value [1] was 25%. It also gave an AUC [1] of 22.5 ng·h/mL, a Cmax [1] of 15.8 ng/mL and a Tmax [1] of 15 min.
In the case of `CN1CC[C@]23c4c5ccc(OC(=O)c6ccccc6O)c4O[C@H]2C(=O)CC[C@@]3(O)[C@H]1C5` [3-(2-OH-Bz)-OM], the “%-AUC” value [1] is reported as 72%, the “%-Cmax” value [1] is reported as 74% and the “%-Tmax” value [1] is reported as 62%. The AUC [1] was 31.3 ng·h/mL, the Cmax [1] was 17.5 ng/mL and the Tmax [1] was 39 min. For the same compound, the “%-AUC” value [2] was 66%, the “%-Cmax” value [2] was 55% and the “%-Tmax” value [2] was 100%. It also gave an AUC [2] of 65.9 ng·h/mL, a Cmax [2] of 276.1 ng/mL and a Tmax [2] of 4.8 min.
In the case of `COc1ccc(C(=O)Oc2ccc3c4c2O[C@H]2C(=O)CC[C@@]5(O)[C@@H](C3)N(C)CC[C@]425)cc1` [3-(4-MeO-Bz)-OM], the “%-AUC” value [1] is reported as 100%, the “%-Cmax” value [1] is reported as 99% and the “%-Tmax” value [1] is reported as 100%. For the same compound, the AUC [1] was 43.2 ng·h/mL, the Cmax [1] was 23.6 ng/mL and the Tmax [1] was 63 min. For the same compound, the “%-AUC” value [2] was 76%, the “%-Cmax” value [2] was 61% and the “%-Tmax” value [2] was 100%. For the same compound, the AUC [2] was 63.1 ng·h/mL, the Cmax [2] was 244.9 ng/mL and the Tmax [2] was 4.8 min.
In the case of `CN1CC[C@]23c4c5ccc(OC(=O)/C=C/c6ccccc6)c4O[C@H]2C(=O)CC[C@@]3(O)[C@H]1C5` [3-Cinnamate-OM], the “%-AUC” value [1] is reported as 190%, the “%-Cmax” value [1] is reported as 236% and the “%-Tmax” value [1] is reported as 136%. It also gave an AUC [1] of 36.8 ng·h/mL, a Cmax [1] of 19.0 ng/mL and a Tmax [1] of 90 min.
In the case of `CN1CC[C@]23c4c5ccc(OC(=O)c6cc(-c7ccc(F)cc7F)ccc6O)c4O[C@H]2C(=O)CC[C@@]3(O)[C@H]1C5` [3-Diflunisal-OM], the “%-AUC” value [1] is reported as 85%, the “%-Cmax” value [1] is reported as 52% and the “%-Tmax” value [1] is reported as 340%. For the same compound, the AUC [1] was 17.6 ng·h/mL, the Cmax [1] was 13.2 ng/mL and the Tmax [1] was 51 min. For the same compound, the “%-AUC” value [2] was 131%, the “%-Cmax” value [2] was 41% and the “%-Tmax” value [2] was 200%. For the same compound, the AUC [2] was 108.2 ng·h/mL, the Cmax [2] was 151.5 ng/mL and the Tmax [2] was 10.2 min.
In the case of `CC(C(=O)Oc1ccc2c3c1O[C@H]1C(=O)CC[C@@]4(O)[C@@H](C2)N(C)CC[C@]314)c1cccc(Oc2ccccc2)c1` (stereo partly drawn) [3-Fenoprofen-OM], the “%-AUC” value [1] is reported as 59%, the “%-Cmax” value [1] is reported as 52% and the “%-Tmax” value [1] is reported as 100%. The AUC [1] was 14.8 ng·h/mL, the Cmax [1] was 9.6 ng/mL and the Tmax [1] was 36 min.
For `CC(C(=O)Oc1ccc2c3c1O[C@H]1C(=O)CC[C@@]4(O)[C@@H](C2)N(C)CC[C@]314)c1cccc(C(=O)c2ccccc2)c1` (stereo partly drawn) [3-Ketoprofen-OM], the “%-AUC” value [1] was 159%, the “%-Cmax” value [1] was 150% and the “%-Tmax” value [1] was 30%. The AUC [1] was 49.7 ng·h/mL, the Cmax [1] was 30.3 ng/mL and the Tmax [1] was 18 min.
With `COc1cc(C(=O)Oc2ccc3c4c2O[C@H]2C(=O)CC[C@@]5(O)[C@@H](C3)N(C)CC[C@]425)ccc1O` [3-Vanillate-OM] the “%-AUC” value [1] was 92%, the “%-Cmax” value [1] was 97% and the “%-Tmax” value [1] was 46%. It also gave an AUC [1] of 14.7 ng·h/mL, a Cmax [1] of 7.5 ng/mL and a Tmax [1] of 48 min.
For `CN1CC[C@]23c4c5ccc(O)c4O[C@H]2C(OC(=O)c2ccccc2O)=CC[C@@]3(O)[C@H]1C5` [6-(2-OH-Bz)-OM], the “%-AUC” value [1] was 134%, the “%-Cmax” value [1] was 157% and the “%-Tmax” value [1] was 60%. For the same compound, the AUC [1] was 50.6 ng·h/mL, the Cmax [1] was 31.6 ng/mL and the Tmax [1] was 45 min.
For `CN1CC[C@]23c4c5ccc(O)c4O[C@H]2C(OC(=O)c2cccc(N)c2)=CC[C@@]3(O)[C@H]1C5` [6-(3-ABz)-OM], the “%-AUC” value [1] was 46%, the “%-Cmax” value [1] was 32% and the “%-Tmax” value [1] was 276%. It also gave an AUC [1] of 16.7 ng·h/mL, a Cmax [1] of 6.2 ng/mL and a Tmax [1] of 114 min.
With `COc1ccc(C(=O)OC2=CC[C@@]3(O)[C@H]4Cc5ccc(O)c6c5[C@@]3(CCN4C)[C@H]2O6)cc1` [6-(4-MeO-Bz)-OM] the “%-AUC” value [1] was 69%, the “%-Cmax” value [1] was 90% and the “%-Tmax” value [1] was 22%. The AUC [1] was 12.2 ng·h/mL, the Cmax [1] was 8.6 ng/mL and the Tmax [1] was 15 min.
With `CN1CC[C@]23c4c5ccc(O)c4O[C@H]2C(OC(=O)/C=C/c2ccccc2)=CC[C@@]3(O)[C@H]1C5` [6-Cinnamate-OM] the “%-AUC” value [1] was 77%, the “%-Cmax” value [1] was 59% and the “%-Tmax” value [1] was 225%. The AUC [1] was 28.0 ng·h/mL, the Cmax [1] was 11.4 ng/mL and the Tmax [1] was 93 min.
`CN1CC[C@]23c4c5ccc(O)c4O[C@H]2C(OC(=O)c2cc(-c4ccc(F)cc4F)ccc2O)=CC[C@@]3(O)[C@H]1C5` [6-Diflunisal-OM] gave an AUC [1] of 67.2 ng·h/mL, a Cmax [1] of 50.6 ng/mL and a Tmax [1] of 15 min. For the same compound, the “%-AUC” value [2] was 25%, the “%-Cmax” value [2] was 11% and the “%-Tmax” value [2] was 100%. The AUC [2] was 20.7 ng·h/mL, the Cmax [2] was 39.1 ng/mL and the Tmax [2] was 4.8 min.
In the case of `CC(C(=O)OC1=CCC2(O)C3Cc4ccc(O)c5c4C2(CCN3C)C1O5)c1cccc(C(=O)c2ccccc2)c1` (stereo not drawn) [6-Ketoprofen-OM], the “%-AUC” value [1] is reported as 99%, the “%-Cmax” value [1] is reported as 47% and the “%-Tmax” value [1] is reported as 260%. It also gave an AUC [1] of 20.6 ng·h/mL, a Cmax [1] of 11.8 ng/mL and a Tmax [1] of 39 min.
For `COc1cc(C(=O)OC2=CC[C@@]3(O)[C@H]4Cc5ccc(O)c6c5[C@@]3(CCN4C)[C@H]2O6)ccc1O` [6-Vanillate-OM], the “%-AUC” value [1] was 56%, the “%-Cmax” value [1] was 65% and the “%-Tmax” value [1] was 97%. For the same compound, the AUC [1] was 8.9 ng·h/mL, the Cmax [1] was 5.0 ng/mL and the Tmax [1] was 102 min.
For `CN1CC[C@]23c4c5ccc(O)c4O[C@H]2C(OC(=O)c2ccccc2)=CC[C@@]3(O)[C@H]1C5` [Conjugate 6-Bz-OM], the “%-AUC” value [1] was 78%, the “%-Cmax” value [1] was 67% and the “%-Tmax” value [1] was 129%. It also gave an AUC [1] of 15.0 ng·h/mL, a Cmax [1] of 6.4 ng/mL and a Tmax [1] of 108 min. The “%-AUC” value [2] was 42%, the “%-Cmax” value [2] was 36% and the “%-Tmax” value [2] was 100%. For the same compound, the AUC [2] was 35.1 ng·h/mL, the Cmax [2] was 145.2 ng/mL and the Tmax [2] was 4.8 min.
